Patent US11384101B2, “Oral care compositions” (priority 2017, dated 2022)
Like-named read-outs stand apart in the source and are kept apart here.

What was measured:
oral bacteria = test: Alamar Blue assay of antibacterial efficacy in the presence of SLS; format: cell-based, oral bacteria from human saliva; details: 1 hour after addition of dye; for presence or absence of live bacteria (indicated by color): Alamar Blue assay in the presence of SLS; for Color of Solution: Alamar Blue, 10 mg active + 20 mg of 30 weight % SLS solution + 5 ml oral bacteria solution, 37° C., blue to red indicates live bacteria
Procedure: Table 1 describes the results of an assay evaluating the antibacterial efficacy of an exemplary CPC-ZnCl2 complex of the present invention, in the presence of an anionic surfactant. […] A negative control was also prepared adding 20 mg (+/− 0.9 mg) of the 30 weight % SLS aqueous solution and 5 ml of the prepared oral bacteria solution to deionized water instead of the antibacterial ingredient. The samples were then placed in a 37° C. oven and shaken at 100 RPM for 30 minutes. 200 μL of Alamar Blue dye was then added to each sample and placed back in the 37° C. oven and shaken at 100 RPM. The samples were then monitored every 30 minutes, with the results 1 hour after addition of the dye recorded in Table 1.

[1] = deionized water, physiological temperature (36-37° C.)
[2] = deionized water, room temperature (23-24° C.)
[3] = deionized water, room temperature (23-24° C.), even after 24 hours of aging

Row | Structure (SMILES) | presence or absence of live bacteria (indicated by color) (oral bacteria) | Color of Solution (oral bacteria) | solubility of 1.0 weight % aqueous solution [1] | solubility of 10 weight % aqueous solution [1] | solubility of 0.1 weight % aqueous solution [2] | solubility of 0.5 weight % aqueous solution [2] | solubility of 1.0 weight % aqueous solution [3] | solubility of 10.0 weight % aqueous solution [3] | reduction in solubility compared to the CPC and ZnCl2 reactants separately (water)
1 | CCCCCCCCCCCCCCCC[n+]1ccccc1 [CPC, Cetylpyridinium chloride] | presence of live bacteria | Pink |  |  |  |  |  |  | 
2 | CCCCCCCCCCCCCCCC[n+]1ccccc1.CCCCCCCCCCCCCCCC[n+]1ccccc1.[Cl][Zn-2]([Cl])([Cl])[Cl] [CPC-ZnCl2 complex, [(C21H38N)2][ZnCl4]] | absence of live bacteria | Blue | soluble | not fully soluble | soluble | soluble | undissolved | undissolved | ≥ 25 fold
3 | [Cl-].[Cl-].[Zn+2] [ZnCl2, zinc chloride] | presence of live bacteria | Purple |  |  |  |  |  |  | 
